Results: ChEMBL document CHEMBL1201862, “PubChem BioAssay data set” (2004)
The source made the active and inactive calls.

Legend:
[1] = intracellular Trypanosoma cruzi inhibitors in host cells – cell-based, plate reader, cherry-pick samples, set 3, dose response (AID 651818); format: functional;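 also: compounds incubated with infected cells for about four days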
[2] = antimalarial activity against erythrocytic parasites – NF54 strain, plate reader, dry powder, dose response (AID 651889); format: functional, cell-based
[3] = host muscle cell viability loss – plate reader, dry powder, counter-screen for T. cruzi inhibitor project, dose response (AID 651895); format: functional, cell-based
[4] = T. cruzi growth inhibition in host cells, dose response, cell-based, plate reader, dry powder, set 2 (AID 652275); format: functional
[5] = Trypanosoma cruzi replication inhibitors in host cells – cell-based, plate reader, dry powder samples, dose response (AID 651845); format: functional
[6] = anti-trypanosomal activity in BESM host cells – imaging, CA-I/72 strain, bovine embryo skeletal muscle, dry powder, dose response (AID 651885); format: functional, cell-based
[7] = antileishmanial activity on axenic amastigotes – plate reader, dry powder, dose response (AID 651892); format: functional, cell-based
[8] = intracellular Chagas parasite inhibition in myoblasts – Tulahuen strain, L-6 host cells, dry powder, dose response (AID 651890); format: functional, cell-based
[9] = African trypanosome bloodstream form growth inhibition – STIB900 strain, plate reader, dry powder, dose response (AID 651894); format: functional, cell-based
[10] = reduction of Shn3 3'UTR-driven luciferase in osteoblasts – cell-based, Clone20 osteoblasts, firefly luciferase, cherry-picked, dose response (AID 624132); format: functional;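 also: firefly luciferase luminescence from reporter carrying the Shn3 3'UTR in osteoblasts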
[11] = loss of viability in HepG2 cells – cell-based, CellTiter-Glo, cherry-picked, cytotoxicity control for Shn3 inhibitor project, dose response (AID 624134); format: functional
[12] = non-specific 3'UTR reporter inhibition in Clone20-Shn3RL – cell-based, Renilla luciferase, cherry-picked, counter-screen for Shn3 inhibitor project, dose response (AID 624133); format: functional
[13] = target: Hepatocyte nuclear factor 4-alpha (Homo sapiens, UniProt P41235); format: functional, cell-based;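 also: biochemical luminescence-based dose-response counterscreen measuring inhibition of HNF4 dimerization, run alongside a screen for blockers of ABHD5–perilipin-5 interaction; split luciferase complementation of HNF4 fusion proteins in cell lysate measuring dimerization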
Paired box protein Pax-8 = Paired box protein Pax-8 (Homo sapiens, UniProt Q06710); assay: PAX8 transcriptional activity inhibition in RMG-I – RMG-I cells, luciferase, cherry-pick, dose response (AID 687027); format: functional, cell-based;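 also: luciferase reporter driven by Pax8 target thyroperoxidase promoter measured by SteadyGlo luminescence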
[14] = reduced cellular PGC1a acetyl-lysine signal – cell-based, cherry-picked samples, dose response (AID 720514); format: functional;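 also: potency may reflect raised or lowered acetylation signal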
[15] = M. tuberculosis growth inhibition, HTS (AID 449762); format: functional
[16] = Luminescence Cell-Based Dose Retest to Confirm Inhibitors of Cancer Stem Cells. [Related pubchem assays (depositor defined):AID2717, AID2721]; format: functional; settings: Homo sapiens
[17] = growth inhibition of yeast DHODH-expressing 3D7 parasites – SYBR Green, dry powder samples, dose response (AID 1159570); format: functional, cell-based;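 also: parasite growth measured after 72 hours of compound exposure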
[18] = toxicity to human HepG2 hepatoma cells – cell-based, plate reader, dry powder samples, cytotoxicity control, dose response (AID 1159569); format: functional;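 also: inhibitor potency with signal falling toward the positive control level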
[19] = P. falciparum Dd2 growth inhibitors, dose response, SYBR Green, cherry-picked samples (AID 1159567); format: functional, cell-based
[20] = Dd2 malaria parasite growth inhibition potency – SYBR Green, dry powder samples, dose response (AID 1159566); format: functional, cell-based;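 also: potency for growth inhibition with lower SYBR green DNA signal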
[21] = growth inhibition of PfATP4-mutant resistant parasites – NITD609-resistant line, SYBR Green, dry powder, dose response (AID 1159571); format: functional, cell-based;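 also: parasites synchronized at ring stage by sorbitol before testing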
H4 = assay: Luminescence Cell-Based Dose Response HTS to Identify Activators of 5'UTR Stem-Loop Driven Prion Protein mRNA Translation in H4 Neuroglioblastoma Cells. [Related pubchem assays: 1829 (Project Summary), 1814 (Primary HTS)]; format: functional; settings: Homo sapiens
[22] = target: Mitogen-activated protein kinase 10 (Homo sapiens, UniProt P53779); assay: Dose response biochemical screening assay for inhibitors of c-Jun N-Terminal Kinase 3 (JNK3). [Related pubchem assays: 746 ]
[23] = toxicity to human hepatoma HepG2 cells – cell-based, cherry-picked samples, cytotoxicity control, dose response (AID 1159577); format: functional
[24] = Trypanosoma cruzi growth suppression in host cells – NIH3T3 host cells, beta-gal luminescence, confirmation (AID 2044); format: functional, cell-based;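 also: intracellular parasites grown in NIH/3T3 mouse fibroblasts as host cells; luminescent beta-galactosidase reporter signal from transgenic T. cruzi replicating inside host cells; inhibitors lower the luminescence signal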
[25] = microbe, parasite or virus in culture; format: functional; settings: Mycobacterium tuberculosis
[26] = NIH3T3 cell viability loss – ATP luminescence, mouse fibroblasts, counter-screen, dose response (AID 2010); format: functional, cell-based;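 also: cells exposed to compound for about 90 hours before reading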
Cytochrome P450 3A4 = Cytochrome P450 3A4 (Homo sapiens, UniProt P08684);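 also: CYP3A4 tested as one member of a cytochrome P450 panel screen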
[27] = target: Sphingosine 1-phosphate receptor 2 (Homo sapiens, UniProt O95136); assay: Dose Response Cell Based Assay for Agonists of the S1P2 Receptor. [Related pubchem assays: 729, 736, 843 ]; format: functional
[28] = target: 5-hydroxytryptamine receptor 1A (Homo sapiens, UniProt P08908); format: functional
[29] = target: T1, Short transient receptor potential channel 4 (Mus musculus, UniProt Q9QUQ5); assay: calcium entry via TRPC4 opening agents – cell-based, HEK293 TRPC4/mu-opioid, Fluo-4 calcium, dose response (AID 434937); format: functional
T1 sequence (Q9QUQ5 whole entry): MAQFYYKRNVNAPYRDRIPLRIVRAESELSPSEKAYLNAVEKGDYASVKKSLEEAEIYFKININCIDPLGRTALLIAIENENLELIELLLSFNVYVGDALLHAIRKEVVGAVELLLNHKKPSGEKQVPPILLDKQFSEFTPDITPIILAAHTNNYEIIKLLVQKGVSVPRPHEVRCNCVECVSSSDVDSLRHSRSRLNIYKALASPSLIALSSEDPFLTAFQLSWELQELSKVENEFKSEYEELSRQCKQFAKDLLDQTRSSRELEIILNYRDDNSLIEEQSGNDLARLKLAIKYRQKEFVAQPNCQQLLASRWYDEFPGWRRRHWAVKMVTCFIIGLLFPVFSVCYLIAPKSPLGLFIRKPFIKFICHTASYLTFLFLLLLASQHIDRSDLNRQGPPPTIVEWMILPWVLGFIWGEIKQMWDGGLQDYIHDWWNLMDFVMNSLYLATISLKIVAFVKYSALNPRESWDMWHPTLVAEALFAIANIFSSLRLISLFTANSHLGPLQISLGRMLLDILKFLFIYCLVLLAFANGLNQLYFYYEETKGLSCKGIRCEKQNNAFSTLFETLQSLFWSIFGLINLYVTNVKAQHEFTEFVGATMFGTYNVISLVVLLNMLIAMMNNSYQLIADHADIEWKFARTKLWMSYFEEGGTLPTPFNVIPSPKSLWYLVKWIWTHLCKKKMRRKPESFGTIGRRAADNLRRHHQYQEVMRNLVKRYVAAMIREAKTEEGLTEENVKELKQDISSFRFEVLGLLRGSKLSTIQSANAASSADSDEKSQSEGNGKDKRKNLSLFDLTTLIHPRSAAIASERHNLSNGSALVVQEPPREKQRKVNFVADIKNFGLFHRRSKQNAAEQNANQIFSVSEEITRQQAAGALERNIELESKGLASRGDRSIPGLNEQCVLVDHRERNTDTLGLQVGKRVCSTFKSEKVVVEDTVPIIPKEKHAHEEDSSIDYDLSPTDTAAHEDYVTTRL

[30] = Luminescence Cell-Based Dose Confirmation HTS to Identify Activators of 5'UTR Stem-Loop Driven Alpha-Synuclein mRNA Translation in H4 Neuroglioblastoma Cells. [Related pubchem assays: 1829 (Project Summary), 1814 (Primary HTS)]; format: functional
[31] = Luminescence Cell-Based Dose Response HTS to Identify Activators of Luciferase Translation or Activity in H4 […] Cells. [Related pubchem assays: 1829 (Project Summary), 1814 (Primary HTS)]; format: functional
Ephrin type-A receptor 4 = Ephrin type-A receptor 4 (Mus musculus, UniProt Q03137); assay: EphA4 ligand-binding antagonists – biochemical, colorimetric, mouse EphA4, primary screen (AID 689); format: functional
[32] = target: Induced myeloid leukemia cell differentiation protein Mcl-1 (Homo sapiens, UniProt Q07820); format: functional
[33] = target: Heat shock protein HSP 90-alpha (Homo sapiens, UniProt P07900); format: functional, organism-based
[34] = CellTiter-Glo luminescence survival assay, SW480 colon tumor line, concentration-response curve, half-maximal inhibitory concentration (AID 1117338); format: functional
[35] = RKO cell viability reduction, dose response, CellTiter-Glo luminescence (AID 1117322); format: functional
[36] = cytotoxicity toward HCT116 cells – cell-based, CellTiter-Glo luminescence, IC50, dose response (AID 1117332); format: functional; settings: HCT-116
[37] = SNU-C1 cell viability reduction, dose response, CellTiter-Glo luminescence (AID 1117323); format: functional, cell-based
[38] = cytotoxicity toward Colo320 cells – cell-based, CellTiter-Glo luminescence, IC50, dose response (AID 1117334); format: functional; settings: COLO 320
[39] = cytotoxicity toward HT-29 cells – cell-based, CellTiter-Glo luminescence, IC50, dose response (AID 1117330); format: functional
[40] = Reduced DLD-1 viability, concentration-response, CellTiter-Glo luminescence (AID 1117352); format: functional
[41] = HCT116 cell viability decrease, GSK3B pretreatment – CellTiter-Glo, IC50, dose response (AID 1117339); format: functional; settings: HCT-116

Sequence of Mitogen-activated protein kinase 10 (P53779 whole entry): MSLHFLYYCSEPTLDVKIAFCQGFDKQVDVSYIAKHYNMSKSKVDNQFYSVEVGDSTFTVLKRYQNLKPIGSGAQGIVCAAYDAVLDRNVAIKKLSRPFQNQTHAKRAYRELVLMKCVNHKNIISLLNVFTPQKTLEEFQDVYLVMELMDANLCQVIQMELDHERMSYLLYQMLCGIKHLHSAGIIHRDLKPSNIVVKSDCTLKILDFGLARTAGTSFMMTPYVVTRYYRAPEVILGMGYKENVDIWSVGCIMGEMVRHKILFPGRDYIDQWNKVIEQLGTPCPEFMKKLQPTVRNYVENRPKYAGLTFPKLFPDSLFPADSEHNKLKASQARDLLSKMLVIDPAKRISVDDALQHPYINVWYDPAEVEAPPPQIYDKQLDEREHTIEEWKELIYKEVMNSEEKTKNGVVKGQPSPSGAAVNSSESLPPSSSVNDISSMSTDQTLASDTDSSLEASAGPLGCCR
Sequence of 5-hydroxytryptamine receptor 1A (P08908 whole entry): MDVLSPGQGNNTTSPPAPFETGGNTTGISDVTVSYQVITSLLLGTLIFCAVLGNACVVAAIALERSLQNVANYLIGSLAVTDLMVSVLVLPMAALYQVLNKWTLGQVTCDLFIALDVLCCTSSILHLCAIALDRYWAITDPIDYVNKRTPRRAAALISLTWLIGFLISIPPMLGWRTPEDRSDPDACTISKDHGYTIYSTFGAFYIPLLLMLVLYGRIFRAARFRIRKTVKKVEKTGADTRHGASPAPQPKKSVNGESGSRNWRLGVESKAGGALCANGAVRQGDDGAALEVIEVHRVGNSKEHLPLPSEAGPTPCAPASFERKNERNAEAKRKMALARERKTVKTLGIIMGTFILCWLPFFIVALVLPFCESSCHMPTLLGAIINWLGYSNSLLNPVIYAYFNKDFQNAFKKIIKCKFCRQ
Sequence of Induced myeloid leukemia cell differentiation protein Mcl-1 (Q07820 whole entry): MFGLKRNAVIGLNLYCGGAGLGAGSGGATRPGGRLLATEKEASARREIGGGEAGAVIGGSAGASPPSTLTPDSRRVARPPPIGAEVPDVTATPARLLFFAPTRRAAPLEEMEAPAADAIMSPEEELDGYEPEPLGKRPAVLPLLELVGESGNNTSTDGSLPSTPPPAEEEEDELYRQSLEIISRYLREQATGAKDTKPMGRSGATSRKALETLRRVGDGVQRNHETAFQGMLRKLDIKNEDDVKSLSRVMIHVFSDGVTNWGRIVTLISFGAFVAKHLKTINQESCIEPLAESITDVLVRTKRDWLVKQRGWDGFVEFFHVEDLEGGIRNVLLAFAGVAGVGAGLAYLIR
Sequence of Paired box protein Pax-8 (Q06710 whole entry): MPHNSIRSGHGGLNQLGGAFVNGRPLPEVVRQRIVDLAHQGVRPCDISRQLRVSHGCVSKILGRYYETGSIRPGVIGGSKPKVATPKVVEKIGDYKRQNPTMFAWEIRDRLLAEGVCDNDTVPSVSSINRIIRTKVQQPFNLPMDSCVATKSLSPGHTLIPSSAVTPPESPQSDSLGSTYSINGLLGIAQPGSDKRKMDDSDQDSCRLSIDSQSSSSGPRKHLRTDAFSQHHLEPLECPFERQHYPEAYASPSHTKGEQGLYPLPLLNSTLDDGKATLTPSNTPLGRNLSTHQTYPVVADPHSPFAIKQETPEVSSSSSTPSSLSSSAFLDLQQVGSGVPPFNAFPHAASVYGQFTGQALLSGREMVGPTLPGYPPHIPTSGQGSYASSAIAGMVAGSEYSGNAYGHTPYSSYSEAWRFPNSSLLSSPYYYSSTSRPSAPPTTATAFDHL
Sequence of Sphingosine 1-phosphate receptor 2 (O95136 whole entry): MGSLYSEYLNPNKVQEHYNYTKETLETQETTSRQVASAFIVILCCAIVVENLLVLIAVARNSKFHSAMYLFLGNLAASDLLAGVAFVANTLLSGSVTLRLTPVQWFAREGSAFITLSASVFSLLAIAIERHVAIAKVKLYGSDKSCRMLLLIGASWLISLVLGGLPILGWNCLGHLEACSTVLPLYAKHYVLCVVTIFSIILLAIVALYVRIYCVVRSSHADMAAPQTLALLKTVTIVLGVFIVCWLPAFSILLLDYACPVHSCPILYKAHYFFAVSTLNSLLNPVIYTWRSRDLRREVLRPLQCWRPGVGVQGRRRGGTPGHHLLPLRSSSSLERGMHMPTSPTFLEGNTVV
Sequence of Ephrin type-A receptor 4 (Q03137 whole entry): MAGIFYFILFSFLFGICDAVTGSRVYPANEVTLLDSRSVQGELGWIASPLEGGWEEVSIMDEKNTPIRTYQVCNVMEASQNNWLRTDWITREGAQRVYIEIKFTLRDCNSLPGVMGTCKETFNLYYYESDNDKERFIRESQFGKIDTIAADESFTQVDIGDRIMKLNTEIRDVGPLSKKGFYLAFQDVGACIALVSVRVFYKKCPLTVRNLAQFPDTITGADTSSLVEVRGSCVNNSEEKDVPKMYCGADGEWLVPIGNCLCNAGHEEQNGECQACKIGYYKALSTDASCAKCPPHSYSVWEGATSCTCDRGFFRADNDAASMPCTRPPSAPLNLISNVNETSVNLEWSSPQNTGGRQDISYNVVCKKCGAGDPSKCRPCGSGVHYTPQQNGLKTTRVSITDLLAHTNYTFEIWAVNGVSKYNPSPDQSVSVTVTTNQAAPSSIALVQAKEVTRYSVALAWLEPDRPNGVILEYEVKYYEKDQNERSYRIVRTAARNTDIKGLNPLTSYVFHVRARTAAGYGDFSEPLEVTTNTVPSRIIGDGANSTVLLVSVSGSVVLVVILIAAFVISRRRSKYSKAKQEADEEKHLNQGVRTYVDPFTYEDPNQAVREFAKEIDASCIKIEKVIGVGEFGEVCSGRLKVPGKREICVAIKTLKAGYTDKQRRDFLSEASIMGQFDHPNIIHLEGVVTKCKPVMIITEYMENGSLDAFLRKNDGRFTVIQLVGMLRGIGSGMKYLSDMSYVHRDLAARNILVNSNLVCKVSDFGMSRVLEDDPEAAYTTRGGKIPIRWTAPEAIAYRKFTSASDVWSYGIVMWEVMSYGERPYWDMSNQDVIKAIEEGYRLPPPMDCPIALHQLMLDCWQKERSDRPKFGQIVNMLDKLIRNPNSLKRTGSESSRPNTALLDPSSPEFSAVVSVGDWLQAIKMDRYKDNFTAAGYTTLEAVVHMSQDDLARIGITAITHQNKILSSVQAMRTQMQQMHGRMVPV
Sequence of Hepatocyte nuclear factor 4-alpha (P41235 whole entry, the tested form may be a part): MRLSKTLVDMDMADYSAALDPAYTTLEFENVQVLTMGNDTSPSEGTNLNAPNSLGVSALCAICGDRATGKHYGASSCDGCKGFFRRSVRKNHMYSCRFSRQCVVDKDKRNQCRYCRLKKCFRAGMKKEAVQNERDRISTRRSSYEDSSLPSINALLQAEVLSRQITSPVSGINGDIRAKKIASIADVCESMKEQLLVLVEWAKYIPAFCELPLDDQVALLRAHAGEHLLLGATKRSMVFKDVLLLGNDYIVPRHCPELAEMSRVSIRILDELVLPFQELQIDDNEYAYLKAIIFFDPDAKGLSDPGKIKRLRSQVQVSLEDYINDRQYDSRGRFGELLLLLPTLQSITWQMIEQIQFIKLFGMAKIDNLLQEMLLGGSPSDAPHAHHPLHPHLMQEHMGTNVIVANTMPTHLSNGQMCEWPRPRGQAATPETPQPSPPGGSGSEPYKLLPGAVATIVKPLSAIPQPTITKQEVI
Sequence of Cytochrome P450 3A4 (P08684 whole entry): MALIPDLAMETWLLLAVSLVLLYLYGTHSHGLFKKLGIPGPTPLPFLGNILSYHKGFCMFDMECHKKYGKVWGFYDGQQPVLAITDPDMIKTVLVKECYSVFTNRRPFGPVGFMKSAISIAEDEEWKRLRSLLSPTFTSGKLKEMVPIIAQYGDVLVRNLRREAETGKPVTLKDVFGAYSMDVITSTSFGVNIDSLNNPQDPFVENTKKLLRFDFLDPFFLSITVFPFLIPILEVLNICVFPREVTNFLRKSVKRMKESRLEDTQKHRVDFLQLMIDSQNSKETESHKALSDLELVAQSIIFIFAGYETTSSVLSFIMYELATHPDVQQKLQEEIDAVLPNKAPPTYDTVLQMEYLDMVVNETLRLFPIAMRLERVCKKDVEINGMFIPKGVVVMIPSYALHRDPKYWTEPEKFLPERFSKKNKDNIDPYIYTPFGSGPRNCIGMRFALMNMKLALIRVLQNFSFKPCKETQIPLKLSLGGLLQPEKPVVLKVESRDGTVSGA

C[C@@H]1CN([C@H](C)CO)C(=O)c2cccc(NC(=O)c3ccncc3)c2O[C@H]1CN(C)Cc1ccc(Oc2ccccc2)cc1
AC50 [1]: 0.08 µM (active)
IC50 [2]: 0.82 µM (inactive)
IC50 [3]: 13.3 µM (inactive)
AC50 [4]: 0.0017 µM (active)
AC50 [5]: 0.00521 µM (active)
IC50 [6]: 0.03 µM (active)
IC50 [7]: 43.7 µM (inactive)
IC50 [8]: 0.031 µM (active)
IC50 [9]: 0.242 µM (active)

C#CCN(C[C@@H]1[C@@H](OC(=O)NCC2CCCCC2)[C@@H](OC(=O)NCC2CCCCC2)Cn2c(=O)ccc(=O)n21)S(=O)(=O)c1ccc(C)cc1
AC50 [10]: 2.49 µM (active)
AC50 [11]: 6.53 µM (active)
AC50 [12]: 3.96 µM (active)
IC50 [13]: 29.3 µM (inactive)
AC50 (Paired box protein Pax-8): 3.03 µM (active)
AC50 [14]: 1.65 µM (active)

COc1ccc(N/N=C(\C=O)C(=O)c2cccs2)cc1
IC50 [15]: > 100 µM (active)
AC50 [16]: 3.43 µM (active)

CCC(=O)N1CCC2(CC1)CN(Cc1cc(F)ccc1F)[C@H](CO)c1[nH]c3cc(OC)ccc3c12
AC50 [17]: 1.83 µM (active)
AC50 [18]: > 100 µM (inactive)
AC50 [19]: 2.98 µM (active)
AC50 [20]: 1.96 µM (active)
AC50 [21]: 1.43 µM (active)

Oc1[nH]c2ccccc2c1/C=N/c1ccc2c(c1)OCO2
EC50 (H4): 1.25 µM (active)
IC50 [22]: > 93.1 µM (not active)

COc1ccc(NC(=O)Nc2ccc3c(c2)CC(=O)N([C@H](C)CO)C[C@H](C)[C@@H](CN(C)Cc2ccc(C(=O)Nc4ccccc4N)cc2)O3)cc1
AC50 [17]: 2.3 µM (active)
AC50 [18]: > 100 µM (inactive)
AC50 [19]: 2.22 µM (active)
AC50 [20]: 1.5 µM (active)
AC50 [23]: > 39 µM (inactive)
AC50 [21]: 2.04 µM (active)

Cc1ccccc1C1C(C#N)=C2N=C(N)c3c(sc4c3CCCCC4)N2C2=C1C(=O)CC(C)(C)C2 (stereo not given)
IC50 [15]: > 100 µM (active)
EC50 [24]: 1.52 µM (active)
CC50 [25]: 33.1 µM (active)
EC50 [26]: > 60 µM (inconclusive)
AC50 (Cytochrome P450 3A4): 1.12 µM (inconclusive)

N#CCN1CCN(CC(=O)Nc2cccc3ccccc23)CC1
EC50 [27]: > 50 µM (not active)

c1ccc2sc(C3CCCNC3)nc2c1 (stereo not given)
EC50 [28]: > 50 µM (not active)
EC50 [29]: 0.0093 µM (active)

COc1ccc2c(c1)c1ncn(Cc3ccco3)c(=O)c1n2C
IC50 [22]: 90 µM (not active)

CCOC(=O)c1c(C)oc2c1c(C(c1cccnc1)N1CCOCC1)c(O)c1ccccc12 (stereo not given)
EC50 [30]: 12.5 µM (active)
EC50 [31]: 106 µM (active)
EC50 (H4): > 120 µM (not active)
IC50 (Ephrin type-A receptor 4): 3.58 µM (active)
IC50 [32]: 1.17 µM (active)
AC50 [33]: 8.43 µM (active)

C[C@H](CO)N1C[C@H](C)[C@@H](CN(C)Cc2ccc(Oc3ccccc3)cc2)Oc2c(NC(=O)c3ccncc3)cccc2C1=O
IC50 [2]: 0.872 µM (inactive)
IC50 [3]: 17.9 µM (inactive)
AC50 [4]: 0.000469 µM (active)
AC50 [5]: 0.00152 µM (active)
IC50 [6]: > 20 µM (inactive)
IC50 [7]: 26.3 µM (inactive)
IC50 [8]: 0.0215 µM (active)
IC50 [9]: 3.73 µM (inactive)

Cc1[nH]c2c(C(F)(F)F)cccc2c1CCN
EC50 [28]: > 50 µM (not active)

COC(=O)c1ccccc1C(=O)OC [DIMETHYL PHTHALATE]
IC50 [34]: > 20 µM (inactive)
IC50 [35]: > 20 µM (inactive)
IC50 [36]: > 20 µM (inactive)
IC50 [37]: > 20 µM (inactive)
IC50 [38]: > 20 µM (inactive)
IC50 [39]: > 20 µM (inactive)
IC50 [40]: > 20 µM (inactive)
IC50 [41]: > 20 µM (inactive)

Cc1cc2nc3c(=O)[nH]c(=O)nc-3n(C[C@H](O)[C@H](O)[C@H](O)COP(=O)(O)OP(=O)(O)OC[C@H]3O[C@@H](n4cnc5c(N)ncnc54)[C@H](O)[C@H]3O)c2cc1C
IC50 [34]: > 20 µM (inactive)
IC50 [35]: > 20 µM (inactive)
IC50 [36]: > 20 µM (inactive)
IC50 [37]: > 20 µM (inactive)
IC50 [38]: > 20 µM (inactive)
IC50 [39]: > 20 µM (inactive)
IC50 [40]: > 20 µM (inactive)
IC50 [41]: > 20 µM (inactive)
